The source of these data is patent publication US20050272688A1, “Combined treatment with gemcitabine and an epidermal growth factor receptor kinase inhibitor” (priority 2004, published 2005).

Data set [1] is described as follows: Single-dose pharmacokinetics of erlotinib in non-tumor bearing mice. It is filed as in vivo, female nu/nu athymic mice. How it is done:
(§1) For single-dose pharmacokinetics (PK), blood samples from three mice per time point were collected by cardiac puncture at 5, 15, 30, 60 minutes and 2, 4, 8, 16, 24 hours post-dose. For chronically treated animals, blood samples from two or three mice per time point were collected via the retro-orbital sinus at 1 and 6 hours. Collection tubes contained ethylene diamine tetra-acetic acid (EDTA) as anticoagulant. Samples were stored at −70° C. […] PK parameters were estimated by non-compartmental analysis of the composite data, using the PK evaluation programme WinNonlin PRO® version 3.1 (Pharsight Inc).
The doses refer to the hydrochloride salt with an active drug (free base) content of 91.5%. […] Three animals per time point were evaluated for PK data (FIG. 4).

A short description of data set [2]: Chronic-dose plasma and tumor concentrations of erlotinib in tumor-bearing mice. As to conditions: for concentration at 1 h / concentration at 6 h: nu/nu athymic, mouse; for concentration at 1 h: 1 hour post dose; for concentration at 6 h: 6 hours post dose. Type of data set: in vivo, nu/nu athymic mice. The protocol:
On day 28 post tumor implant, blood (from the retro-orbital sinus) and tumor samples were collected at 1 and 6 hours post dosing. […] Values are means±SD, n=3.
as §1

A short description of a further data set: in vivo. As to conditions: for MTD at 14 days: female, mouse, in vivo. The protocol: FIG. 6: Maximum tolerated dose assessment in non-tumour bearing athymic nude mice treated for 14 days (n=5).
Female, athymic, nu/nu-nuBR nude mice (Charles River Labs, Wilmington, USA) of around 10-12 weeks and weighing 23-25 g were used. The health of the mice was assessed daily by observation and analysis of blood samples taken from sentinel animals on the shared shelf racks. All animals were allowed to acclimatise and recover from shipping-related stress for 1 week.

Another data set relates to H460a NSCLC xenograft. In words: Tumor growth inhibition in H460a NSCLC xenograft model. Type of data set: in vivo, athymic nude mice. How it is done: (§2) Mice were implanted with H460a NSCLC cells. […] Tumor size was measured 3 times per week. Values are means, n=10.
as §2
(§3) H460a cells (provided by Dr Jack Roth, Md., Anderson) were grown in Dulbecco's Modified Eagle Media (DMEM) supplemented with 10% Foetal Bovine Serum (FBS). A549 cells (American Type Culture Collection [Manassas, Va.] were grown in Roswell Park Memorial Institute medium (RPMI) 1640+10% FBS. The cell concentrations for implant were 1×10^7 cells/0.2 mL for H460a and 7.5×10^6 cells/0.2 mL for A549.
(§4) Cells were suspended in phosphate-buffered saline, and implanted subcutaneously in the right flank of each mouse. Once palpable tumours were established, animals were randomised so that all groups had similar starting mean tumour volumes of 100-150 mm^3. Tumour measurements and mouse weights were taken three times per week. Animals were individually monitored throughout the experiment.
(§5) All groups were treated daily for 3 weeks.
(§6) Gemcitabine was given intraperitoneally (i.p.) using a 3 mL syringe and 26-gauge needle. All groups were treated every 3 days for 3 weeks (a total of six injections).
(§7) Weight loss was calculated as percent change in mean group body weight, using the formula: ((W−W0)/W0)×100 • where ‘W’ represents mean body weight of the treated group at a particular day, and ‘W0’ represents mean body weight of the same group at start of treatment. Maximum weight loss was also calculated using the above formula, giving the maximum percentage of body weight lost at any time in the entire experiment for a particular group. Treatment efficacy was assessed by tumor growth inhibition. Tumour volumes of treated groups were given as percentages of tumor volumes of the control groups (% T/C), using the formula: 100×((T−T0)/(C−C0)) • where ‘T’ represents mean tumor volume of a treated group on a specific day during the experiment, ‘T0’ represented mean tumor volume of the same group on the first day of treatment, C represents mean tumor volume of a control group on a particular day of the experiment, and C0 represents mean tumor volume of the same group on the first day of treatment.
(§8) Tumor growth inhibition was calculated using the formula: [127] 100% T/C
(§9) Tumor volume (mm^3) was calculated using the ellipsoid formula: (D×(d^2))/2 • where ‘D’ represents the large diameter of the tumor, and ‘d’ represents the small diameter. In some cases, tumor regression and/or percentage change in tumor volume was calculated using the formula: ((T−T0)/T0)×100 • where ‘T’ represents mean tumor volume of the treated group at a particular day, and ‘T0’ represents mean tumor volume of the same treated group at the start of treatment.

In another data set the test system is A549 NSCLC xenograft. It is filed as in vivo. The protocol:
Mice were implanted with A549 NSCLC cells. […] Tumor size was measured 3 times per week. Values are means, n=10.
as §3, §4, §5, §6, §7, §8, §9

Data set [3] in a line: Necropsy, haematology, clinical chemistry and histology of treated mice. It is filed as in vivo, athymic nude mice.
From the text: At necropsy, skin samples were fixed in 10% buffered formalin, embedded in paraffin, sectioned at 5 μand stained with haematoxylin and eosin.
Five mice per treatment from all remaining groups were given a full necropsy at the end of the study. Whole blood was also collected from these mice for haematology and clinical chemistry.
The next data set deals with NSCLC xenograft tumor. In words: Immunohistochemistry of xenograft tumors (Ki-67, TUNEL apoptosis, CD31 microvascular density). Type of data set: in vivo, athymic nude mice. How it is done:
Sections for immunohistochemistry were cut at 5μ.
To block non-specific tissue-binding sites, sections were blocked by 10% normal serum from the species in which the secondary antibody was raised. Sections were incubated for 20 minutes at room temperature in serum prepared in Ultra-V (Lab Vision).

The test system of a further data set is NSCLC. As to conditions: single agent, stage 1V patients; cited from earlier work.
Where [4] appears, read: plasma, oral 6.3-150.0 mg/kg daily, highest value, read-out: Plasma concentration.
[5] abbreviates: H460a tumor, oral 150 mg/kg, read-out: Mean tumor concentration.

“And” between values parts separate entries of the source, which are not always exact repeats. Identical values can stand only once. Like-named read-outs stand apart in the source and are kept apart here.

As a reminder, the half-life is the time needed for the level to fall by half in the phase considered. A word on the AUC(0-t): it is exposure summed from dosing to a finite time, without extrapolation to infinity. High values mean high exposure, low ones low exposure. `C#Cc1cccc(Nc2ncnc3cc(OCCOC)c(OCCOC)cc23)c1` [erlotinib, [6,7-bis(2-methoxyethoxy)-4-quinazolin-4-yl]-(3-ethynylphenyl) amine]: in data set [1] (20 vs 100 mg/kg single dose), the “Dose proportionality of exposure (AUC)” value is on record as “dose-proportional”. Further, the MRT in data set [1] (female, nu/nu athymic, mouse, plasma, po, single 20 and 100 mg/kg by gavage, read-out: Average mean residence time) was ~7 h. Also, the half-life in data set [1] (female, nu/nu athymic, mouse, plasma, po, single 20 and 100 mg/kg by gavage, read-out: Mean apparent terminal half-life (converted)) was ~4 h. Further, the AUC(0-t) is 33.5 µg·h/mL in data set [1] (female, nu/nu athymic, mouse, po, single 20 mg/kg by gavage, plasma) and ~196 µg·h/mL in data set [1] (female, nu/nu athymic, mouse, po, single 100 mg/kg by gavage, plasma). Moreover, the “Mean maximum plasma concentration” value in data set [1] (single 20 mg/kg by gavage) is given as ~9,100 ng/mL; in data set [1] (single 100 mg/kg by gavage) it was “approximately 24,000 ng/mL”. Also, in data set [1] (single 20 and 100 mg/kg by gavage), the “Time of maximum plasma concentration” value is recorded as 0.5-1.0 hours post dose. For the same molecule, the “Dose proportionality of exposure” value in data set [2] (ascending oral doses 6.3-150.0 mg/kg, tumor-bearing mice) is reported as “more than dose-proportional”. The concentration at 1 h in data set [2] (setting [4]) was ≤ 16700 ng/mL; in data set [2] (setting [5]) it was 4800 ng/g. Moreover, the values for the concentration at 6 h in data set [2] (setting [4]) and in data set [2] (setting [5]) were ≤ 8870 ng/mL and 3090 ng/g, respectively. The Tolerability entry in the data set “in vivo” (150 mg/kg for 3 weeks, previous efficacy studies (unpublished)) was “well tolerated”. The Toxicity outcome in the data set “in vivo” (200 mg/kg group) is recorded as “marked weight loss”; in the data set “in vivo” (400 mg/kg group), “One mouse in the 400 mg/kg group died”. For the same molecule, the MTD at 14 days in the data set “in vivo” (oral daily, 14 days) was found to be 100 mg/kg. Moreover, the Tumor growth inhibition in the data set with H460a NSCLC xenograft (dose response study, 6.25 mg/kg oral daily, day 28) is 28%; in the data set with H460a NSCLC xenograft (dose response study, 12.5 mg/kg oral daily, day 28), 36%; with H460a NSCLC xenograft (dose response study, 25 mg/kg oral daily, day 28), 46%; in the data set with H460a NSCLC xenograft (dose response study, 100 mg/kg oral daily, day 28 post tumor implantation), 61%; with A549 NSCLC xenograft (erlotinib 25 mg/kg alone, day 47), 48%; in the data set on A549 NSCLC xenograft (erlotinib 100 mg/kg alone, day 47 post tumor implantation (treatment day 19)), 87%. Further, the Tumor regressions entry with H460a NSCLC xenograft (dose response study, all dose groups) is reported as “no partial or complete regressions”. For the same molecule, the “Extent of partial regression” value in the data set with A549 NSCLC xenograft (erlotinib 100 mg/kg alone) is 16% and 7%. In addition, the “Number of partial regressions” value in the data set on A549 NSCLC xenograft (erlotinib 100 mg/kg alone) is reported as “two”. In addition, the Skin lesion histology result in data set [3] (erlotinib 100 mg/kg/day for 21 days) was “diffuse, mild to moderate epidermal acanthosis, epidermal hyperkeratosis, focal escharosis, and infiltration of mostly acute inflammatory cells in the dermis”. For the same molecule, the “Changes in haematology or clinical chemistry parameters” value in data set [3] (erlotinib monotherapy) was “no changes”. In addition, the “Treatment-related macroscopic changes in the skin” value in data set [3] (erlotinib monotherapy) is “substantial reddening and crusting of the skin of the muzzle”. The Ki-67 proliferative index entry in the data set with NSCLC xenograft tumor (erlotinib 100 mg/kg, both NSCLC xenograft tumor models) is on record as “mild decrease”. Moreover, in the data set on NSCLC xenograft tumor (erlotinib monotherapy), the “Angiogenesis as microvascular density (MVD), CD31 staining” value was “no clear effect”. Besides, the “Frequency of apoptosis in tumor cells” value in the data set with NSCLC xenograft tumor (erlotinib monotherapy, treated xenografts) is recorded as “no significant difference”.
`Nc1ccn([C@@H]2O[C@H](CO)[C@@H](O)C2(F)F)c(=O)n1` [gemcitabine] came in with an MTD at 14 days in “in vivo” (every 3 days) of 120 mg/kg. Also, the Tumor growth inhibition in the data set with H460a NSCLC xenograft (combination study, gemcitabine 30 mg/kg i.p. every 3 days alone) was 64%; in the data set on H460a NSCLC xenograft (combination study, gemcitabine 120 mg/kg i.p. every 3 days alone), 93%; in the data set with A549 NSCLC xenograft (gemcitabine 30 mg/kg alone, day 47), 42%; with A549 NSCLC xenograft (gemcitabine 120 mg/kg alone, day 47) it was 75%. Also, the “Extent of partial regression” value with A549 NSCLC xenograft (gemcitabine 120 mg/kg alone) is listed as 5%. Also, the “Number of partial regressions” value in the data set on A549 NSCLC xenograft (gemcitabine 120 mg/kg alone) was “one”.
As to `CC(=O)O[C@H]1C(=O)[C@@]2(C)[C@H]([C@H](OC(=O)c3ccccc3)[C@]3(O)C[C@H](OC(=O)[C@H](O)[C@@H](NC(=O)c4ccccc4)c4ccccc4)C(C)=C1C3(C)C)[C@]1(OC(C)=O)CO[C@@H]1C[C@@H]2O` [paclitaxel], the Response rate with NSCLC is given as 21% to 24%.
